Read-outs that look alike come from different tables or passages of the source.
Molecular target: T1, human GC-A (Homo sapiens, UniProt P16066)
T1 construct: expressed in transfected cells; host or cells: CHO cells
T1 sequence (P16066 33-1061): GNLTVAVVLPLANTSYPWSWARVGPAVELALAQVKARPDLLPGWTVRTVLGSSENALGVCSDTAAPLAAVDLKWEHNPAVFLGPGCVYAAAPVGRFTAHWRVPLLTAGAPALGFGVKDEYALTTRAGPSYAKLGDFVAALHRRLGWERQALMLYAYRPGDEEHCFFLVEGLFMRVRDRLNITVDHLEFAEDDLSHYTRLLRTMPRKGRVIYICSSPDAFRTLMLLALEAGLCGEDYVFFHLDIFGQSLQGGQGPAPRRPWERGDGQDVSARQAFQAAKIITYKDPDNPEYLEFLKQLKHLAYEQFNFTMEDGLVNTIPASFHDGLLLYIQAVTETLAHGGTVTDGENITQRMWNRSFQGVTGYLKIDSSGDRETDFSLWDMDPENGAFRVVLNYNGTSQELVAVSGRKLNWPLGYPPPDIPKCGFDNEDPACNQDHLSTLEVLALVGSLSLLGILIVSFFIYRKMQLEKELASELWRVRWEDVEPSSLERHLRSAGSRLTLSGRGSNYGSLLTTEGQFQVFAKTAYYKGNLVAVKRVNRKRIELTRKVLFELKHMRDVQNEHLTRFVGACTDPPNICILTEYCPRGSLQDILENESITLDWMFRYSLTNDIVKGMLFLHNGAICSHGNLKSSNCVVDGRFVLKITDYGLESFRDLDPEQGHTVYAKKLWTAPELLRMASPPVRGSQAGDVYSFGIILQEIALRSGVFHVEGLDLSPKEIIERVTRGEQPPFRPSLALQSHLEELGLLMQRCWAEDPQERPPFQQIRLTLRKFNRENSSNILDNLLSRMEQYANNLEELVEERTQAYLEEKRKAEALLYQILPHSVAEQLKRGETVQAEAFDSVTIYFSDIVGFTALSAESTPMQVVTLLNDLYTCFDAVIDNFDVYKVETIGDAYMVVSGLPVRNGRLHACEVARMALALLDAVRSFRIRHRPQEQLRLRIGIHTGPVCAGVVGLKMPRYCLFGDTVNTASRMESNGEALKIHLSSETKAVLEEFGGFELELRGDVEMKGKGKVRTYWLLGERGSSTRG
Assay: cGMP elevating activity in CHO/human GC-A cells (Test Example 1)
Assay type: cell-based
Settings: for Emax: maximum T/C in range 0.01-100 nM, solvent only = 0, 1 nM ANP = 1
Procedure: The cGMP elevating activity of each modified peptide prepared in Example 2 was measured by the following method:
CHO/human GC-A cells, which are CHO cells constitutively expressing human GC-A, were suspended at 2×10^5 cells/ml in α-MEM, 10% FBS, and 1% penicillin-streptomycin, inoculated at 20 μl/well (4×10^3 cells/well) onto a 384-well plate (Corning, 3826), and cultured overnight in a CO2 incubator. On the next day, the medium was removed from this plate, and then, 1.6 mM IBMX/KRB buffer was added thereto at 10 μl/well. The mixture was stirred on a plate shaker and then incubated at room temperature for 10 minutes. […] The mixture was stirred on a plate shaker and then incubated for 15 minutes in a CO2 incubator. Thereafter, a lysis buffer (50 mM phosphate buffer, pH 7.0, and 1% Triton X-100) was added thereto at 5 μl/well. The cells were lysed by stirring for 10 minutes on a plate shaker. Subsequently, the cGMP levels in the cell lysates were measured by use of a cGMP kit (manufactured by Cisbio Bioassays). Specifically, to a 384-well plate (Greiner, 784076), 5 μl/well of a diluent attached to the kit, 5 μl/well of the cell lysate, 5 μl/well of cGMP-d2, and 5 μl/well of anti cGMP-Cryptate were added. The mixture was stirred on a plate shaker and then incubated overnight at 4° C. in the dark, followed by the measurement of homogeneous time-resolved fluorescence using RubyStar (manufactured by BMG LABTECH JAPAN Ltd.). The activity value (T/C) of the test substance at each concentration was calculated when the activity value of a well supplemented with only a solvent was defined as 0 and the activity value of a well supplemented with 1 nM ANP was defined as 1.

[1] = CHO/human GC-A cells, concentration at T/C=0.5, 15 minutes incubation, read-out: EC50

Molecule | EC50 [nM] | EC50 [1] [nM] | Emax
CC[C@H](C)[C@@H]1NC(=O)[C@H](CCCNC(=N)N)NC(=O)[C@H](CC(=O)O)NC(=O)[C@H](CCSC)NC(=O)[C@H](CCCNC(=N)N)NC(=O)CNC(=O)CNC(=O)[C@H](Cc2ccccc2)NC(=O)[C@@H](NC(=O)[C@H](CO)NC(=O)[C@H](CO)NC(=O)[C@H](CCCNC(=N)N)NC(=O)[C@H](CCCNC(=N)N)NC(=O)[C@H](CC(C)C)NC(=O)[C@H](CO)NC(=O)CCSC2CC(=O)N(CCC(=O)NCCOCCOCCOCCOCCC(=O)N[C@@H](CCC(=O)NCCO[C@@H]3O[C@H](CO)[C@@H](O[C@@H]4O[C@H](CO)[C@@H](O[C@@H]5O[C@H](CO[C@H]6O[C@H](CO)[C@@H](O)[C@H](O)[C@@H]6O[C@@H]6O[C@H](CO)[C@@H](O[C@@H]7O[C@H](CO[C@]8(C(=O)O)C[C@H](O)[C@@H](NC(C)=O)[C@H]([C@H](O)[C@H](O)CO)O8)[C@H](O)[C@H](O)[C@H]7O)[C@H](O)[C@H]6NC(C)=O)[C@@H](O)[C@H](O[C@H]6O[C@H](CO)[C@@H](O)[C@H](O)[C@@H]6O[C@@H]6O[C@H](CO)[C@@H](O[C@@H]7O[C@H](CO[C@]8(C(=O)O)C[C@H](O)[C@@H](NC(C)=O)[C@H]([C@H](O)[C@H](O)CO)O8)[C@H](O)[C@H](O)[C@H]7O)[C@H](O)[C@H]6NC(C)=O)[C@@H]5O)[C@H](O)[C@H]4NC(C)=O)[C@H](O)[C@H]3NC(C)=O)C(=O)NCCO[C@@H]3O[C@H](CO)[C@@H](O[C@@H]4O[C@H](CO)[C@@H](O[C@@H]5O[C@H](CO[C@H]6O[C@H](CO)[C@@H](O)[C@H](O)[C@@H]6O[C@@H]6O[C@H](CO)[C@@H](O[C@@H]7O[C@H](CO[C@]8(C(=O)O)C[C@H](O)[C@@H](NC(C)=O)[C@H]([C@H](O)[C@H](O)CO)O8)[C@H](O)[C@H](O)[C@H]7O)[C@H](O)[C@H]6NC(C)=O)[C@@H](O)[C@H](O[C@H]6O[C@H](CO)[C@@H](O)[C@H](O)[C@@H]6O[C@@H]6O[C@H](CO)[C@@H](O[C@@H]7O[C@H](CO[C@]8(C(=O)O)C[C@H](O)[C@@H](NC(C)=O)[C@H]([C@H](O)[C@H](O)CO)O8)[C@H](O)[C@H](O)[C@H]7O)[C@H](O)[C@H]6NC(C)=O)[C@@H]5O)[C@H](O)[C@H]4NC(C)=O)[C@H](O)[C@H]3NC(C)=O)C2=O)CSSC[C@@H](C(=O)N[C@@H](CC(N)=O)C(=O)N[C@@H](CO)C(=O)N[C@@H](Cc2ccccc2)C(=O)N[C@@H](CCCNC(=N)N)C(=O)N[C@@H](Cc2ccc(O)cc2)C(=O)O)NC(=O)CNC(=O)[C@H](CC(C)C)NC(=O)CNC(=O)[C@H](CO)NC(=O)[C@H](CCC(N)=O)NC(=O)[C@H](C)NC(=O)CNC1=O (stereo partly shown) [Compound 2-32, SG-(SG-)Gln*-PEG(3)-Mal-hANP(1-28)] | 0.41 | – | –
[(SG-)Cys-Gly]5-hANP(1-28) [Compound 2-17] | – | 35 | 0.70
CC[C@H](C)[C@@H]1NC(=O)[C@H](CCCNC(=N)N)NC(=O)[C@H](CC(=O)O)NC(=O)[C@H](CCSC)NC(=O)[C@H](CCCNC(=N)N)NC(=O)CNC(=O)CNC(=O)[C@H](Cc2ccccc2)NC(=O)[C@@H](NC(=O)[C@H](CO)NC(=O)[C@H](CO)NC(=O)[C@H](CCCNC(=N)N)NC(=O)[C@H](CCCNC(=N)N)NC(=O)[C@H](CC(C)C)NC(=O)[C@H](CO)NC(=O)CCOCCOCCOCCOCCNC(=O)[C@H](CC(=O)N[C@@H]2O[C@H](CO)[C@@H](O[C@@H]3O[C@H](CO)[C@@H](O[C@@H]4O[C@H](CO[C@H]5O[C@H](CO)[C@@H](O)[C@H](O)[C@@H]5O[C@@H]5O[C@H](CO)[C@@H](O)[C@H](O)[C@H]5NC(C)=O)[C@@H](O)[C@H](O[C@H]5O[C@H](CO)[C@@H](O)[C@H](O)[C@@H]5O[C@@H]5O[C@H](CO)[C@@H](O)[C@H](O)[C@H]5NC(C)=O)[C@@H]4O)[C@H](O)[C@H]3NC(C)=O)[C@H](O)[C@H]2NC(C)=O)NC(=O)CO[C@@H]2O[C@H](CO)[C@@H](O[C@@H]3O[C@H](CO)[C@@H](O[C@@H]4O[C@H](CO[C@H]5O[C@H](CO)[C@@H](O)[C@H](O)[C@@H]5O[C@@H]5O[C@H](CO)[C@@H](O)[C@H](O)[C@H]5NC(C)=O)[C@@H](O)[C@H](O[C@H]5O[C@H](CO)[C@@H](O)[C@H](O)[C@@H]5O[C@@H]5O[C@H](CO)[C@@H](O)[C@H](O)[C@H]5NC(C)=O)[C@@H]4O)[C@H](O)[C@H]3NC(C)=O)[C@H](O)[C@H]2NC(C)=O)CSSC[C@@H](C(=O)N[C@@H](CC(N)=O)C(=O)N[C@@H](CO)C(=O)N[C@@H](Cc2ccccc2)C(=O)N[C@@H](CCCNC(=N)N)C(=O)N[C@@H](Cc2ccc(O)cc2)C(=O)O)NC(=O)CNC(=O)[C@H](CC(C)C)NC(=O)CNC(=O)[C@H](CO)NC(=O)[C@H](CCC(N)=O)NC(=O)[C@H](C)NC(=O)CNC1=O [Compound 2-22, AG(7)-(AG(7)-)Asn-PEG(3)-hANP(1-28)] | 0.08 | – | –
CC[C@H](C)[C@@H]1NC(=O)[C@H](CCCNC(=N)N)NC(=O)[C@H](CC(=O)O)NC(=O)[C@H](CCSC)NC(=O)[C@H](CCCNC(=N)N)NC(=O)CNC(=O)CNC(=O)[C@H](Cc2ccccc2)NC(=O)[C@@H](NC(=O)[C@H](CO)NC(=O)[C@H](CO)NC(=O)[C@H](CCCNC(=N)N)NC(=O)[C@H](CCCNC(=N)N)NC(=O)[C@H](CC(C)C)NC(=O)[C@H](CO)NC(=O)CCOCCOCCOCCOCCNC(=O)[C@H](CC(=O)N[C@@H]2O[C@H](CO)[C@@H](O[C@@H]3O[C@H](CO)[C@@H](O[C@@H]4O[C@H](CO[C@H]5O[C@H](CO)[C@@H](O)[C@H](O)[C@@H]5O[C@@H]5O[C@H](CO)[C@@H](O[C@@H]6O[C@H](CO)[C@H](O)[C@H](O)[C@H]6O)[C@H](O)[C@H]5NC(C)=O)[C@@H](O)[C@H](O[C@H]5O[C@H](CO)[C@@H](O)[C@H](O)[C@@H]5O[C@@H]5O[C@H](CO)[C@@H](O[C@@H]6O[C@H](CO)[C@H](O)[C@H](O)[C@H]6O)[C@H](O)[C@H]5NC(C)=O)[C@@H]4O)[C@H](O)[C@H]3NC(C)=O)[C@H](O)[C@H]2NC(C)=O)NC(=O)CO[C@@H]2O[C@H](CO)[C@@H](O[C@@H]3O[C@H](CO)[C@@H](O[C@@H]4O[C@H](CO[C@H]5O[C@H](CO)[C@@H](O)[C@H](O)[C@@H]5O[C@@H]5O[C@H](CO)[C@@H](O[C@@H]6O[C@H](CO)[C@H](O)[C@H](O)[C@H]6O)[C@H](O)[C@H]5NC(C)=O)[C@@H](O)[C@H](O[C@H]5O[C@H](CO)[C@@H](O)[C@H](O)[C@@H]5O[C@@H]5O[C@H](CO)[C@@H](O[C@@H]6O[C@H](CO)[C@H](O)[C@H](O)[C@H]6O)[C@H](O)[C@H]5NC(C)=O)[C@@H]4O)[C@H](O)[C@H]3NC(C)=O)[C@H](O)[C@H]2NC(C)=O)CSSC[C@@H](C(=O)N[C@@H](CC(N)=O)C(=O)N[C@@H](CO)C(=O)N[C@@H](Cc2ccccc2)C(=O)N[C@@H](CCCNC(=N)N)C(=O)N[C@@H](Cc2ccc(O)cc2)C(=O)O)NC(=O)CNC(=O)[C@H](CC(C)C)NC(=O)CNC(=O)[C@H](CO)NC(=O)[C@H](CCC(N)=O)NC(=O)[C@H](C)NC(=O)CNC1=O [Compound 2-21, AG(9)-(AG(9)-)Asn-PEG(3)-hANP(1-28)] | 0.097 | – | –
SG2-(SG2-)Lys-[SG2-(SG2-)-Lys-]Lys-PEG(3)-hANP(1-28) [Compound 2-20] | – | 64 | 0.59

From US10947289B2, “Glyco-modified atrial natriuretic peptide” (priority 2013, dated 2021)
